Measurements reported in paper PMC5986712, “Aminobenzothiazole derivatives stabilize the thermolabile p53 cancer mutant Y220C and show anticancer activity in p53-Y220C cell lines” (European Journal of Medicinal Chemistry, 2018).

Assays:
NUGC3 cells (p53-Y220C) = assay: Cell viability assay (CellTiter-Fluor / CellTiter-Glo 2.0), NUGC3; assay type: cell-based, human; settings: for IC50: Homo sapiens, NUGC-3, 72 h, Y220C cell line
Method: (§1) We also envisaged that masking the carboxylate of MB710 as a simple ethylamide MB725 might influence cell permeability and uptake of the scaffold.
(§2) All cell lines were cultured as previously described. Cell viability was measured in quadruplicate (technical replicates) using the CellTiter-Fluor or CellTiter-Glo 2.0 cell viability assay kits (Promega, USA) as previously described.

[1] = tested on: NUGC4 cells (wild-type p53); assay: Cell viability assay, NUGC4; assay type: cell-based; settings: Homo sapiens, NUGC-4; 72 h, p53 WT
Method: as §1, §2

p53 cancer mutant Y220C = settings: cited from earlier work
[2] = tested on: WI38 cells (non-cancerous fibroblast, p53 WT); assay: Cell viability assay, WI38; settings: Homo sapiens, WI-38, 72 h, read-out: IC50 WI38
Method: (§5) All cell lines were cultured as previously described [9]. Cell viability was measured in quadruplicate (technical replicates) using the CellTiter-Fluor or CellTiter-Glo 2.0 cell viability assay kits (Promega, USA) as previously described [9].

BXPC-3 cells (p53-Y220C) = assay: Cell viability assay, BXPC3; settings: BXPC-3, 72 h; for IC50: Homo sapiens, read-out: IC50 BXPC3
Method: as §5

HUH-7 cells (p53-Y220C) = assay: Cell viability assay, HUH7; assay type: cell-based, human
Method: as §1, §2

[3] = tested on: HUH-7 and HUH-7 p53-Y220C KO cells; assay: Cell viability, HUH-7 versus isogenic HUH-7 p53-Y220C KO; assay type: cell-based, human; settings: 72 h
Text: (§3) To confirm that MB725 mediated anticancer effects are dependent on p53-Y220C, we additionally tested the compound in HUH-7 and an in-house CRISPR generated isogenic p53-Y220C knock-out (KO) HUH-7 cell line (Fig. 8). This new cell line contains a frameshift mutation at codon 124 on one allele and deletion of amino acids 125–223 on the other allele, leading to functional inactivation of the p53 DNA-binding domain (aa 92–292). MB725 decreased cell viability by ca. 30–40% more potently in HUH-7 than in the isogenic HUH-7 p53-Y220C KO (Fig. 8, upper panel).
Fig. 8 Assessment of p53-Y220C dependent effect of MB725. Treatment of HUH-7 (p53-Y220C) and HUH-7 p53-Y220C KO cell lines with MB725 for 72 h underscores the enhanced cytotoxicity of MB725 in the presence of p53-Y220C (left panel). […] Cell viability was measured in quadruplicate and normalized against the values of blank (viability = 1) and no cell (viability = 0) controls (left panel). […] Relative mRNA fold-change was measured in triplicate and normalized against untreated sample according to the ΔΔCt method. […]
(§4) WI-38 and BXPC-3 (p53-Y220C) cell lines were purchased from ATCC and HUH-7 (p53-Y220C+/+), HUH-6 (wild-type p53+/+). […] Cell viability was measured in quadruplicate (technical replicates) using the CellTiter-Fluor or CellTiter-Glo 2.0 cell viability assay kits (Promega, USA) as previously described. […]

[4] = Cell viability in other cell lines (lacking Y220C); assay type: cell-based; settings: human, at concentrations below 40 μM
Text: We expected our compounds to show a strong cell viability reduction in cancer cell lines containing the Y220C mutation (NUGC3, HUH-7, BXPC-3), while showing relatively low or no effect on cell lines lacking this mutation (all others). We also envisaged that masking the carboxylate of MB710 as a simple ethylamide MB725 might influence cell permeability and uptake of the scaffold. […] In particular, NUGC3 was the most sensitive cell line.
Fig. 6 Effects of Y220C binders on cancer cell viability. Relative cell viability (Y-axis) of representative cell lines after 72 h treatment with increasing concentrations (X-axis, μM) of 60 (A), MB710 (B), MB725 (C), and previously reported lead compounds PK083 (D), PK7088 (E) and PK5196 (F). The cell line employed in each experiment and their respective p53 status are shown. […] Cell viability was measured in quadruplicate and normalized against the values of blank (viability = 1) and no cell (viability = 0) controls. Data are shown as mean ± SEM.
as §4

[5] = tested on: p53 target genes in HUH-7 and HUH-7 p53-Y220C KO cells; assay: Real-time PCR of p53 target genes, HUH-7 versus HUH-7 p53-Y220C KO; assay type: cell-based, human; settings: 18 h
Text: as §3
Fig. 8 Assessment of p53-Y220C dependent effect of MB725. Treatment of HUH-7 (p53-Y220C) and HUH-7 p53-Y220C KO cell lines with MB725 for 72 h underscores the enhanced cytotoxicity of MB725 in the presence of p53-Y220C (left panel). […] Cell viability was measured in quadruplicate and normalized against the values of blank (viability = 1) and no cell (viability = 0) controls (left panel). Data are shown as mean ± SEM (Unpaired t-test to test for significance in HUH7 and HUH7 p53 KO viability reduction; *p < 0.05; **p < 0.01; ***p < 0.001). Relative mRNA fold-change was measured in triplicate and normalized against untreated sample according to the ΔΔCt method. […]
Real-time PCR experiments were performed as described. […] The ΔΔCt method was used to quantify relative mRNA levels. Each sample was measured in triplicate.

[6] = Solubility (qualitative observation); assay type: physicochemical
SW1088 cells (p53-R273C) = assay: Cell viability assay, SW1088; settings: Homo sapiens, SW1088, 72 h, read-out: IC50 SW1088
Method: as §5

[7] = biological target: T1, stabilized p53-Y220C DBD (residues 94–312) (Homo sapiens, UniProt P04637, M133L/N239Y/N268D/V203A/Y220C); assay: Differential scanning fluorimetry (DSF), thermal stabilization of Y220C; assay type: binding; settings: 8 μM protein, 10 × SYPRO Orange, 250 μM ligand
T1 construct: Stabilized p53-Y220C DBD (residues 94–312) was expressed and purified; 6xHis / lipoyl domain / TEV protease cleavage site (N, cleaved yes); made in house; host or cells: E. coli C41
Method: DSF was performed as described. […] All samples were measured in triplicate.

15N-labeled T-p53C-Y220C = biological target: T2, 15N-labeled T-p53C-Y220C (Homo sapiens, UniProt P04637, M133L/N239Y/N268D/V203A/Y220C); assay: 1H/15N-HSQC NMR titration; assay type: binding; settings: average of at least three fits of shifted peaks
T2 construct: Stabilized p53-Y220C DBD (residues 94–312) was expressed and purified; 6xHis / lipoyl domain / TEV protease cleavage site (N, cleaved yes); made in house; host or cells: E. coli C41
Text: Compound stock solutions were mixed with protein immediately before the NMR measurement.

Row | IC50 (BXPC-3 cells (p53-Y220C)) [µM] | IC50 (HUH-7 cells (p53-Y220C); Homo sapiens, Huh-7, 72 h, Y220C cell line) [µM] | solubility (in words) [6] | IC50 (SW1088 cells (p53-R273C)) [µM] | Structure (SMILES) | IC50 (NUGC3 cells (p53-Y220C)) [µM] | IC50 [1] [µM] | Kd (p53 cancer mutant Y220C) [µM] | IC50 [2] [µM] | concentration at which an almost maximum effect was achieved (NUGC3 cells (p53-Y220C); NUGC3, 72 h) | cell viability (NUGC3 cells (p53-Y220C); NUGC3, 72 h, at concentrations below 40 μM) [%] | cell viability (HUH-7 cells (p53-Y220C); HUH-7, 72 h, at concentrations below 40 μM) [%] | cell viability decreased more potently in HUH-7 than in isogenic HUH-7 p53-Y220C KO [3] | viability at 72 h [4] [%] | increase of mRNA levels of p53 target genes (PUMA (BBC3), p21, MDM2, NOXA, BAX) [5] | cell viability (BXPC-3 cells (p53-Y220C); at concentrations below 40 μM) [%] | ΔTm at 250 µM [7] [°C] | Kd (15N-labeled T-p53C-Y220C) [µM]
1 | 43 |  |  |  | CCn1c2ccccc2c2cc(CNC)ccc21 [Compound 1] | 14 | 9 | 140 | 22 |  |  |  |  |  |  |  |  | 
2 | 18 | 10 | reduced solubility | > 120 | CCNC(=O)c1c(O)c(I)c(-n2cccc2)c2sc(N(CC)CC)nc12 [Compound 72, 2-(diethylamino)-N-ethyl-5-hydroxy-6-iodo-7-(1H-pyrrol-1-yl)benzo[d]thiazole-4-carboxamide] | 10 | > 120 |  | > 120 | below 10 μM | 10 | 30 | 30–40% | > 80 | more efficiently in HUH-7 than in HUH-7 p53-Y220C KO | 30 |  | 
3 |  |  |  |  | CCCCOc1cc(C(=O)O)c(O)c(I)c1-n1cccc1 [Compound 52, 5-butoxy-2-hydroxy-3-iodo-4-(1H-pyrrol-1-yl)benzoic acid] |  |  |  |  |  |  |  |  |  |  |  | 1.4 | 30
